From US11505548B2, “Heterocyclic compounds and their use for treatment of helminthic infections and diseases” (Celgene Corporation, priority 2019, dated 2022)
Read-outs that look alike come from different tables or passages of the source.

System: Onchocerca gutturosa Adult Male Worms
Experiment: Onchocerciasis in vitro screening model, worm motility score
Format: cell-based
Settings: read-out: O. gutturosa activity level (IC50 or MED)
[1] = Onchocerca gutturosa, Table 1 O. gutturosa, levels A/B/C, motility or MTT readout not specified
[2] = in vitro, Onchocerca gutturosa adult male worms, class A/B/C

| Compound | IC50 [1] [µM] | IC50 [2] [µM] |
| --- | --- | --- |
| Cc1cccnc1Nc1nc(-c2ccc(OC3CCOCC3)cn2)ns1 [Compound 15, N-(3-methyl-pyridin-2-yl)-3-(5-(tetrahydro-2H-pyran-4-yloxy)pyridin-2-yl)-1,2,4-thiadiazol-5-amine] | < 0.2 |  |
| Cc1cccnc1Nc1nc(-c2cc(C3CCN(C)CC3)ccn2)ns1 [Compound 44, 3-(4-(1-methyl-piperidin-4-yl)pyridin-2-yl)-N-(3-methylpyridin-2-yl)-1,2,4-thiadiazol-5-amine] | < 0.2 |  |
| Cc1cccnc1Nc1nc(-c2ccc(OC(F)(F)F)cn2)ns1 [Compound 52, N-(3-methyl-pyridin-2-yl)-3-(5-(trifluoro-methoxy)pyridin-2-yl)-1,2,4-thiadiazol-5-amine] | < 0.2 |  |
| CC(C)Oc1cnc(-c2nsc(Nc3ncccc3C(F)(F)F)n2)cc1C(=O)N(C)C [Compound 218, 5-isopropoxy-N,N-dimethyl-2-(5-(3-(trifluoromethyl)pyridin-2-ylamino)-1,2,4-thiadiazol-3-yl)isonico-tinamide] |  | 0.5 to 5 |
| Cc1cccnc1Nc1nc(-c2cc(C#N)ccn2)ns1 [Compound 40, 2-(5-(3-methyl-pyridin-2-ylamino)-1,2,4-thiadiazol-3-yl)isonicotino-nitrile] | 0.5 to 5 |  |
| CC(=O)N(C)c1cc(C(F)(F)F)cnc1Nc1nc(-c2cc3c(cn2)OC(C)(C)C3)ns1 [Compound 272, N-(2-(3-(2,2-dimethyl-2,3-dihydrofuro [2,3-c]pyridin-5-yl)-1,2,4-thiadiazol-5-ylamino)-5-(trifluoromethyl)pyridin-3-yl)-N-methylacetamide] |  | 0.2 to 0.5 |
| Cc1cccnc1-c1nsc(Nc2ccc(N3CCCC3)cn2)n1 [Compound 51, 3-(3-methyl-pyridin-2-yl)-N-(5-(pyrrolidin-1-yl)pyridin-2-yl)-1,2,4-thiadiazol-5-amine] | < 0.2 |  |
| Cc1cccnc1Nc1nc(-c2ccc(OC3CCOCC3)cn2)no1 [Compound 16, N-(3-methyl-pyridin-2-yl)-3-(5-(tetrahydro-2H-pyran-4-yloxy)pyridin-2-yl)-1,2,4-oxadiazol-5-amine] | < 0.2 |  |
| COc1ccnc(-c2nsc(Nc3ccc(C(C)C)cn3)n2)c1 [Compound 177, N-(5-isopropyl-pyridin-2-yl)-3-(4-methoxy-pyridin-2-yl)-1,2,4-thiadiazol-5-amine] | < 0.2 |  |
| CC(C)Oc1ccc(-c2nsc(Nc3ncc(C(C)C)cc3C(F)(F)F)n2)nc1 [Compound 165, 3-(5-isopropoxy-pyridin-2-yl)-N-(5-isopropyl-3-(trifluoromethyl)pyridin-2-yl)-1,2,4-thiadiazol-5-amine] | < 0.2 |  |
| CN1Cc2ccnc(-c3nsc(Nc4ncccc4N(C)C)n3)c2C1 [Compound 163, N3,N3-dimethyl-N2-(3-(2-methyl-2,3-dihydro-1H-pyrrolo[3,4-c]pyridin-4-yl)-1,2,4-thia-diazol-5-yl)pyridine-2,3-diamine] | < 0.2 |  |
| CCOc1ccc(Nc2nc(-c3ncccc3F)no2)nc1 [Compound 25, N-(5-ethoxy-pyridin-2-yl)-3-(3-fluoropyridin-2-yl)-1,2,4-oxadiazol-5-amine] | < 0.2 |  |
| O=C(CC(F)(F)F)N1CCN(c2ccc(Nc3nc(-c4ccc(OC5CC5)cn4)ns3)nc2)CC1 [Compound 113, 1-(4-(6-(3-(5-cycloprop-oxypyridin-2-yl)-1,2,4-thiadiazol-5-ylamino)pyridin-3-yl)piperazin-1-yl)-3,3,3-trifluoro-propan-1-one] | 0.5 to 5 |  |
| CC(C)Oc1ccc(-c2nsc(Nc3ncccc3N(C)C(=O)C3CC3)n2)nc1 [Compound 170, N-(2-(3-(5-isopropoxy-pyridin-2-yl)-1,2,4-thiadiazol-5-ylamino)pyridin-3-yl)-N-methylcyclo-propanecarbox-amide] | 0.2 to 0.5 |  |
| Cc1ccnc(Nc2nnc(-c3ncccc3C)[nH]2)c1 [Compound 242, 4-methyl-N-(5-(3-methyl-pyridin-2-yl)-4H-1,2,4-triazol-3-yl)pyridin-2-amine] |  | 0.5 to 5 |
| Cc1cccnc1Nc1nc(-c2ccc(OC(C)C)cn2)ns1 [Compound 19, 3-(5-isopropoxy-pyridin-2-yl)-N-(3-methyl-pyridin-2-yl)-1,2,4-thiadiazol-5-amine] | < 0.2 |  |
| Cc1cccnc1Nc1nc(-c2ccc(C(=O)N3CCN(C)CC3)cn2)ns1 [Compound 57, (4-methyl-piperazin-1-yl)(6-(5-(3-methyl-pyridin-2-ylamino)-1,2,4-thiadiazol-3-yl)pyridin-3-yl) methanone] | 0.5 to 5 |  |
| Cc1cccnc1Nc1nc(-c2cc(OC3CC3)c(C(F)(F)F)cn2)ns1 [Compound 151, 3-(4-cyclo-propoxy-5-(trifluoromethyl)pyridin-2-yl)-N-(3-methylpyridin-2-yl)-1,2,4-thiadiazol-5-amine] | < 0.2 |  |
| COc1ccc(-c2nsc(Nc3cc(OC4CCOCC4)ccn3)n2)nc1 [Compound 46, 3-(5-methoxy-pyridin-2-yl)-N-(4-(tetrahydro-2H-pyran-4-yloxy)pyridin-2-yl)-1,2,4-thiadiazol-5-amine] | 0.2 to 0.5 |  |
| CN(C)c1cccnc1Nc1nc(-c2cc(OC3CC3)c(C(F)(F)F)cn2)ns1 [Compound 153, N2-(3-(4-cyclo-propoxy-5-(trifluoromethyl)pyridin-2-yl)-1,2,4-thiadiazol-5-yl)-N3,N3-dimethyl-pyridine-2,3-diamine] | 0.5 to 5 |  |
| Cc1cccnc1Nc1nc(-c2ccc(OC3CC4(C3)CN(C3CC3)C4)cn2)ns1 [Compound 82, 3-(5-(2-cyclo-propyl-2-azaspiro[3.3]heptan-6-yloxy)pyridin-2-yl)-N-(3-methylpyridin-2-yl)-1,2,4-thiadiazol-5-amine] | 0.2 to 0.5 |  |
| Cc1cccnc1Nc1nc(-c2ccc(O[C@@H]3CCN(C4CC4)C[C@H]3F)cn2)ns1 [Compound 91, 3-(5-((3R,4R)-1-cyclopropyl-3-fluoro-piperidin-4-yloxy)pyridin-2-yl)-N-(3-methylpyridin-2-yl)-1,2,4-thiadiazol-5-amine] | < 0.2 |  |
| CC(=O)N(C)c1cccnc1Nc1nc(-c2cc3c(cn2)N(C)CC3)ns1 [Compound 202, N-methyl-N-(2-(3-(1-methyl-2,3-dihydro-1H-pyrrolo[2,3-c]pyridin-5-yl)-1,2,4-thiadiazol-5-ylamino)pyridin-3-yl)acetamide] |  | 0.2 to 0.5 |
| CNc1cccnc1Nc1nc(-c2ccc(OC3CCN(C4CC4)CC3(F)F)cn2)ns1 (stereo not drawn) [Compound 122, N2-(3-(5-(1-cyclopropyl-3,3-difluoropiperidin-4-yloxy)pyridin-2-yl)-1,2,4-thiadiazol-5-yl)-N3-methyl-pyridine-2,3-diamine] | 0.2 to 0.5 |  |
| Cc1cccnc1Nc1nc(-c2ccc(OCC3CC3)cn2)ns1 [Compound 73, 3-(5-(cyclopropyl-methoxy)pyridin-2-yl)-N-(3-methylpyridin-2-yl)-1,2,4-thiadiazol-5-amine] | < 0.2 |  |

The remaining lines, values ahead:

| IC50 [1] [µM] | IC50 [2] [µM] | Compound |
| --- | --- | --- |
|  | 0.5 to 5 | CN(C)C(=O)c1cccnc1Nc1nc(-c2cc3c(cn2)N(C)CC3)ns1 [Compound 229, N,N-dimethyl-2-(3-(1-methyl-2,3-dihydro-1H-pyrrolo[2,3-c]pyridin-5-yl)-1,2,4-thiadiazol-5-ylamino) nicotinamide] |
|  | 0.5 to 5 | CC(=O)N(C)c1cc(C(F)F)cnc1Nc1nc(-c2cc3c(cn2)N(C)CC3)ns1 [Compound 330, N-(5-(difluoro-methyl)-2-(3-(1-methyl-2,3-dihydro-1H-pyrrolo[2,3-c]pyridin-5-yl)-1,2,4-thiadiazol-5-ylamino)pyridin-3-yl)-N-methylacetamide] |
|  | < 0.2 | Cc1ccnc(Nc2nsc(-c3ncccc3C)n2)c1 [Compound 305, 5-(3-methyl-pyridin-2-yl)-N-(4-methylpyridin-2-yl)-1,2,4-thiadiazol-3-amine] |
|  | < 0.2 | COc1ccc(Nc2nnc(-c3cc(OC4CCCCC4)ccn3)s2)nc1 [Compound 233, 5-(4-(cyclo-hexyloxy)pyridin-2-y1)-N-(5-methoxypyridin-2-yl)-1,3,4-thiadiazol-2-amine] |
|  | 0.5 to 5 | CC(=O)N(C)c1cccnc1Nc1nc(-c2ccc(OC(C)C)cn2)no1 [Compound 222, N-(2-(3-(5-isopropoxy-pyridin-2-yl)-1,2,4-oxadiazol-5-ylamino)pyridin-3-yl)-N-methyl-acetamide] |
|  | < 0.2 | CC(=O)N(C)c1cc(C(F)(F)F)cnc1Nc1nc(-c2cc(C(C)C)ccn2)ns1 [Compound 301, N-(2-(3-(4-isopropylpyridin-2-yl)-1,2,4-thiadiazol-5-ylamino)-5-(trifluoromethyl)pyridin-3-yl)-N-methylacetamide] |
|  | 0.5 to 5 | CC(=O)Nc1ncc(C(F)(F)F)cc1N(C)c1nnc(-c2ccc(OC(C)C)cn2)o1 [Compound 319, N-(3-((5-(5-isopropoxypyridin-2-yl)-1,3,4-oxadiazol-2-yl)(methyl)amino)-5-(trifluoromethyl)pyridin-2-yl)acetamide] |
|  | 0.2 to 0.5 | CC(C)Oc1ccc(-c2nsc(Nc3ncccc3S(=O)(=O)N3CCC3)n2)nc1 [Compound 298, N-(3-(azetidin-1-ylsulfonyl)pyridin-2-yl)-3-(5-isopropoxypyridin-2-yl)-1,2,4-thiadiazol-5-amine] |
|  | < 0.2 | CC(=O)N(C)c1cc(C(F)(F)F)cnc1Nc1nc(-c2cc3c(cn2)N(C)C(C)(C)C3)ns1 [Compound 291, N-methyl-N-(5-(trifluoromethyl)-2-(3-(1,2,2-trimethyl-2,3-dihydro-1H-pyrrolo[2,3-c]pyridin-5-yl)-1,2,4-thiadiazol-5-ylamino)pyridin-3-yl)acetamide] |
|  | < 0.2 | CC(=O)N(C)c1cc(C(F)(F)F)cnc1Nc1nc(-c2cc(OC3CCOCC3)ccn2)ns1 [Compound 306, N-methyl-N-(2-(3-(4-(tetrahydro-2H-pyran-4-yloxy)pyridin-2-yl)-1,2,4-thiadiazol-5-ylamino)-5-(trifluoromethyl)pyridin-3-yl)acetamide] |
|  | < 0.2 | CC(C)Oc1ccnc(-c2nsc(Nc3ncccc3S(=O)(=O)N(C)C)n2)c1 [Compound 308, 2-(3-(4-isoprop-oxypyridin-2-yl)-1,2,4-thiadiazol-5-ylamino)-N,N-dimethyl-pyridine-3-sulfonamide] |
